Laboratory results reported in patent US20240254087A1, “SELECTIVE, PARTIAL, AND ARRESTIN-BIASED 5-HT2A AGONISTS WITH UTILITY IN VARIOUS DISORDERS” (Saint Joseph's University, priority 2021, published 2024).

Experiments:
[1] = target: T1, 5-HT2C (Homo sapiens, UniProt P28335); experiment: Competitive radioligand binding (NIMH PDSP); design: expressed in transfected cells
T1 sequence (P28335 33-458): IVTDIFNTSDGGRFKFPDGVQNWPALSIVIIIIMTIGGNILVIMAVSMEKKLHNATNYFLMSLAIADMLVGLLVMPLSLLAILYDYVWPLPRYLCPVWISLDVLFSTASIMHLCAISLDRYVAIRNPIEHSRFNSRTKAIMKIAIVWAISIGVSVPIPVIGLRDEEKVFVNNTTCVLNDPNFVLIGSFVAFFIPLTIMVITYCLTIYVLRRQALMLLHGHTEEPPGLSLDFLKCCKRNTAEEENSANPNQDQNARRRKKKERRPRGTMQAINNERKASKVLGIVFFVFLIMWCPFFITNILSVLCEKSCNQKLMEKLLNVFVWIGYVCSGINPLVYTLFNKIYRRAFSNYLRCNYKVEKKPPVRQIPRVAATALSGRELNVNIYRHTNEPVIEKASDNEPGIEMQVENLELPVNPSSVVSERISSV
Procedure: (§1) Method 1: Competitive binding experiments were performed by the National Institute of Mental Health Psychoactive Drug Screening Program (NIMH PDSP) using described methods or 5-HT2A experiments performed using [3H]-ketanserin displacement in human 5-HT2A expressing membranes. Target compounds were dissolved in DMSO and an initial screen performed to assess displacement of the radioligand from target receptors at a concentration of 10,000 nM. […] For the Ki experiments, compounds were always tested in triplicate on separate plates. Each plate also contained a known ligand for the receptor as a positive control.

[2] = target: T2, 5-HT2B (Homo sapiens, UniProt P41595); experiment: Competitive radioligand binding (NIMH PDSP); design: expressed in transfected cells
T2 sequence (P41595 whole entry): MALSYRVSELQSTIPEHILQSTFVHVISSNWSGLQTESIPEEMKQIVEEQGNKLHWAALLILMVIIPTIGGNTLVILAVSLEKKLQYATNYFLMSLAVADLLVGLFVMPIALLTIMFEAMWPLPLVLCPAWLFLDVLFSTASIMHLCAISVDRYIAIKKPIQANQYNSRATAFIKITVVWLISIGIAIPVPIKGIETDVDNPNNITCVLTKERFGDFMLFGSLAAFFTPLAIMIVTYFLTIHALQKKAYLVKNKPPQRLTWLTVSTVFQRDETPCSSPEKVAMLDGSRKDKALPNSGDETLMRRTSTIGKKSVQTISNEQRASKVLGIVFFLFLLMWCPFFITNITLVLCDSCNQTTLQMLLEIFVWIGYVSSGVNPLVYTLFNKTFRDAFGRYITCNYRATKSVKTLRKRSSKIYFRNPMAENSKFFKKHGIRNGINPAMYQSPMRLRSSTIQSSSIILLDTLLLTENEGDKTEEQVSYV
Procedure: as §1

[3] = target: T1, 5-HT2C; experiment: Ca2+ flux assay, 5-HT2C; type: cell-based; design: expressed in transfected cells; conditions: for EC50: 5-HT2C EC50, nM; for Emax: read-out: 5-HT2C Emax % 5-HT
[4] = target: 5-HT1B (Homo sapiens, UniProt P28222); experiment: Competitive radioligand binding (NIMH PDSP)
5-HT1B, sequence (P28222 whole entry, species assumed): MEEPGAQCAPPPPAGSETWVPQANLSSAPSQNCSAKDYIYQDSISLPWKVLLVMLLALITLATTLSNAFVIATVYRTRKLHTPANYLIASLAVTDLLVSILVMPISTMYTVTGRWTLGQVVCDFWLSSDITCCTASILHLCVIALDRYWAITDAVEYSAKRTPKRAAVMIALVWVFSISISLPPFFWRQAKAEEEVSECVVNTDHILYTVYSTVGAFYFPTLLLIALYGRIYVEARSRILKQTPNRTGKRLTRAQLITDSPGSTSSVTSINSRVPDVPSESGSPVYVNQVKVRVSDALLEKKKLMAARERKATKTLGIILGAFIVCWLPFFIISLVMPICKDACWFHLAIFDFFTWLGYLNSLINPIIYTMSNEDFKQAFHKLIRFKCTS
Procedure: as §1

[5] = target: T3, 5-HT3 (Homo sapiens, UniProt P46098); experiment: Competitive radioligand binding (NIMH PDSP)
T3 sequence (P46098 24-478): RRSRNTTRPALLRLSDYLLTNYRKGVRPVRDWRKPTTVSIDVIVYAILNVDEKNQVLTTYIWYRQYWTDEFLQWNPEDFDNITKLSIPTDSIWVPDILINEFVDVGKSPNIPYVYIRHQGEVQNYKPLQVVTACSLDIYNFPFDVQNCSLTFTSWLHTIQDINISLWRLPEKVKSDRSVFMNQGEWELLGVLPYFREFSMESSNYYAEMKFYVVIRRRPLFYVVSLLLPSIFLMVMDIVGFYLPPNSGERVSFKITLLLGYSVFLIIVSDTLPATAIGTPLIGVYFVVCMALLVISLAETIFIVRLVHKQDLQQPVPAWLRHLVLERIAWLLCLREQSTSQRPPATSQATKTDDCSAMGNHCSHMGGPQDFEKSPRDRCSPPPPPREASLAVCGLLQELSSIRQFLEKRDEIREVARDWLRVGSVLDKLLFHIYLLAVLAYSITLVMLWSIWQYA
Procedure: as §1

[6] = target: 5-HT1D (Homo sapiens, UniProt P28221); experiment: Competitive radioligand binding (NIMH PDSP)
5-HT1D, sequence (P28221 whole entry, species assumed): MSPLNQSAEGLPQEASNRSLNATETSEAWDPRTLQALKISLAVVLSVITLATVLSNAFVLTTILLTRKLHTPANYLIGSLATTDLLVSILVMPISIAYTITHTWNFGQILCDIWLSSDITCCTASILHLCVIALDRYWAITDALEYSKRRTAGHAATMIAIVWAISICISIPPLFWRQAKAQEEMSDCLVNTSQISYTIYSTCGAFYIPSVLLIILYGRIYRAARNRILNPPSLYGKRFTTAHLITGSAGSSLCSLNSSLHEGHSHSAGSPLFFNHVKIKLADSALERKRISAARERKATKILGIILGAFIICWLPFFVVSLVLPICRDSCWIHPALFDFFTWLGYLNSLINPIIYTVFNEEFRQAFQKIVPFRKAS
Procedure: as §1

[7] = target: T4, 5-HT2A (Homo sapiens, UniProt P28223); experiment: Competitive radioligand binding (NIMH PDSP)
T4 sequence (P28223 whole entry): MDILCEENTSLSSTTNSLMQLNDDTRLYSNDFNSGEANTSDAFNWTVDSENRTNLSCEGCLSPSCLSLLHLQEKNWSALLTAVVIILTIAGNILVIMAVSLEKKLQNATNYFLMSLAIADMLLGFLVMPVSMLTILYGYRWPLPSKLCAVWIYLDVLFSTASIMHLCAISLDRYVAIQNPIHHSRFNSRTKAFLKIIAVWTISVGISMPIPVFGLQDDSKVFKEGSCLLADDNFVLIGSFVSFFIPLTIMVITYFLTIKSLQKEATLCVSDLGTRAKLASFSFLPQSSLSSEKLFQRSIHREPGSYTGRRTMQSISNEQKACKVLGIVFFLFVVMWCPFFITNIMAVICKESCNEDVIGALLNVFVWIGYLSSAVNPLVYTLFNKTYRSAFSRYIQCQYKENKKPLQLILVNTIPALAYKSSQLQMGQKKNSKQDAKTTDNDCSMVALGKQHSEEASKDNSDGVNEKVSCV
Procedure: as §1

[8] = target: 5-HT1e (Homo sapiens, UniProt P28566); experiment: Competitive radioligand binding (NIMH PDSP)
5-HT1e, sequence (P28566 whole entry, species assumed): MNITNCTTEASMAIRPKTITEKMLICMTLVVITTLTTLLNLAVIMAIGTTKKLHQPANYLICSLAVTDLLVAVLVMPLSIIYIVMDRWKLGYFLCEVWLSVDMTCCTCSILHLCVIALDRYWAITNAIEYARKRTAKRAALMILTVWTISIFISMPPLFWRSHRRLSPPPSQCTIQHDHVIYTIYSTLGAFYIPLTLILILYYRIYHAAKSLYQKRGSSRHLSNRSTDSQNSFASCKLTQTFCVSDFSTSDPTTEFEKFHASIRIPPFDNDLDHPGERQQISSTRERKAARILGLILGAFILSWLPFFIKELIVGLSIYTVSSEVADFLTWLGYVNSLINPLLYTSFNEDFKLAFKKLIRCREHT
Procedure: as §1

[9] = target: T5, 5-HT1A (Homo sapiens, UniProt P08908); experiment: Competitive radioligand binding (NIMH PDSP)
T5 sequence (P08908 1-422): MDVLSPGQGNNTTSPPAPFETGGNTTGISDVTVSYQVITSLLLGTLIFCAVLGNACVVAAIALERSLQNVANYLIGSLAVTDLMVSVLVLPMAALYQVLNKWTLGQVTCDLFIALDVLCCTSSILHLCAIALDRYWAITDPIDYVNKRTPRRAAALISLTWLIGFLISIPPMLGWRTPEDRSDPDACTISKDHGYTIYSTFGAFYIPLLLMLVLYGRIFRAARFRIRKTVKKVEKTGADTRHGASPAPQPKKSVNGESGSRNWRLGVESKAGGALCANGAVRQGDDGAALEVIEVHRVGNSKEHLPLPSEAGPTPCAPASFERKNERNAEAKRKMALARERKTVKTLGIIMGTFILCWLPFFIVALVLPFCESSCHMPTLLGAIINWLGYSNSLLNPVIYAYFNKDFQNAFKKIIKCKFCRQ
Procedure: as §1

[10] = target: T4, 5-HT2A; experiment: Ca2+ flux assay, 5-HT2A; type: cell-based; design: expressed in transfected cells; conditions: for Emax: read-out: 5-HT2A Emax % 5-HT, Ca2+ flux
[11] = target: T2, 5-HT2B; experiment: Ca2+ flux assay, 5-HT2B; type: cell-based; design: expressed in transfected cells; conditions: for Emax: read-out: 5-HT2B Emax % 5-HT; for Emax / 5-HT2B EC50, nM: Ca2+ flux
[12] = system: 5-HT2A; experiment: Ca2+ flux assay, 5-HT2A; type: cell-based, human; conditions: Gq/11 Ca2+ mobilization; higher number = skewed towards 5-HT2A

| SMILES | Ki [1] [nM] | Ki [2] [nM] | EC50 [3] [nM] | Emax [3] [%] | Ki [4] [nM] | Ki [5] [nM] | Ki [6] [nM] | Ki [7] [nM] | Ki [8] [nM] | Ki [9] [nM] | EC50 ([10]; 5-HT2A (pEC50 ± SEM), Ca2+ flux) [nM] | EC50 ([10]; 5-HT2A EC50, nM, Ca2+ flux) [nM] | Emax [10] [%] | EC50 [11] [nM] | Emax [11] [%] | 5-HT2A/5-HT2c Selectivity Factor ΔLog(Emax/EC50) [12] | 5-HT2C EC50, nM [3] | 5-HT2A EC50, nM ([10]; Ca2+ flux) | 5-HT2B EC50, nM [11] | 5-HT2A Emax % 5-HT ([10]; Ca2+ flux) [% 5-HT] |
| --- | --- | --- | --- | --- | --- | --- | --- | --- | --- | --- | --- | --- | --- | --- | --- | --- | --- | --- | --- | --- |
| COc1cc([N+](=O)[O-])c(OC)cc1CCN [2C-N (1), 2-(2,5-dimethoxy-4-nitrophenyl)ethan-1-amine, reference compound] | 162 | 123 | 60.1 | 69 ± 2 | > 10000 | > 10000 | 832 | 72.4 | 676 | 1450 | 4.9 | 4.56 | 100 ± 1 | 50.3 | 72 ± 3 | 19.1 | – | – | – | – |
| COc1cc([N+](=O)[O-])c(OC)cc1CCNCc1cccc2ccccc12 [25N-N-1-Nap (16), [2-(2,5-dimethoxy-4-nitrophenyl)ethyl][(naphthalen-1-yl)methyl]amine] | 4.27 | 1.17 | – | < 10 | > 10000 | > 10000 | 871 | 1.15 | > 10000 | 240 | – | – | < 10 | – | < 10 | 5-HT2A Selective | No activity | No activity | No activity | – |
| COc1cc([N+](=O)[O-])c(OC)cc1CCNCc1ccccc1 [25N-NB (2), Benzyl[2-(2,5-dimethoxy-4-nitrophenyl)ethyl]amine] | – | – | 26.2 | 75 ± 1 | – | – | – | – | – | – | – | 1.27 | 86 ± 1 | – | < 10 | 23.6 | – | – | No activity | – |
| COc1cc([N+](=O)[O-])c(OC)cc1CCNCc1cccc(F)c1OC [25N-NB-2-MeO-3-F (19), [2-(2,5-dimethoxy-4-nitrophenyl)ethyl][(3-fluoro-2-methoxyphenyl)methyl]amine] | 40.7 | 25.1 | 74.5 | 77 ± 2 | > 10000 | > 10000 | > 10000 | 7.41 | > 10000 | 1000 | – | 2.35 | 83 ± 1 | – | < 10 | 33.8 | – | – | No activity | – |
| COc1cc([N+](=O)[O-])c(OC)cc1CCNCc1cccc(C)c1O [25N-NB-2-OH-3-Me (18), 2-({[2-(2,5-dimethoxy-4-nitrophenyl)ethyl]amino}methyl)-6-methylphenol] | 2.88 | 0.776 | – | < 10 | > 10000 | > 10000 | 1290 | 0.479 | > 10000 | 186 | – | 1.58 | 55 ± 2 | – | < 10 | 5-HT2A Selective | No activity | – | No activity | – |
| COc1cc([N+](=O)[O-])c(OC)cc1CCNCc1cccc(C)c1 [25N-NB-3-Me (22), [2-(2,5-dimethoxy-4-nitrophenyl)ethyl][(3-methylphenyl)methyl]amine] | 39.8 | 2.88 | 14.3 | 15 ± 2 | > 10000 | > 10000 | 933 | 0.209 | > 10000 | 1780 | – | 2.27 | 54 ± 1 | – | < 10 | 29.1 | – | – | No activity | – |
| COc1cc([N+](=O)[O-])c(OC)cc1CCNCc1cccc(O)c1 [25N-NB-3-OH (21), 3-({[2-(2,5-dimethoxy-4-nitrophenyl)ethyl]amino}methyl)phenol] | 83.2 | 35.5 | 49.1 | 53 ± 4 | > 10000 | > 10000 | > 10000 | 14.5 | > 10000 | 1860 | – | 3.32 | 55 ± 2 | – | < 10 | 92.6 | – | – | No activity | – |
| COc1cc([N+](=O)[O-])c(OC)cc1CCNCc1ccccc1C(F)(F)F [25N-NBCF3 (14), [2-(2,5-dimethoxy-4-nitrophenyl)ethyl]({[2-(trifluoromethyl)phenyl]methyl}) amine] | 102 | 58.9 | 271 | 20 ± 2 | > 10000 | > 10000 | > 10000 | 20 | > 10000 | 1070 | – | 12.3 | ≤ 77 | – | < 10 | 85.5 | – | – | No activity | 77 ± 1 |
| COc1cc([N+](=O)[O-])c(OC)cc1CCNCc1ccccc1I [25N-NBI (10)] | 43.7 | 20 | 682 | 45 ± 2 | > 10000 | > 10000 | > 10000 | 5.37 | > 10000 | 1000 | – | 3.29 | 88 ± 1 | – | < 10 | 406 | – | – | No activity | – |
| COc1cc([N+](=O)[O-])c(OC)cc1CCNCc1ccccc1[N+](=O)[O-] [25N-NBNO2 (15), [2-(2,5-dimethoxy-4-nitrophenyl)ethyl][(2-nitrophenyl)methyl]amine] | 282 | 191 | 583 | 36 ± 2 | > 10000 | > 10000 | > 10000 | 81.3 | > 10000 | 1950 | – | 15.6 | ≤ 77 | – | < 10 | 66.8 | – | – | No activity | 64 ± 2 |
